Values joined by “and” are separate entries in the source; they are usually repeats but may differ in a detail not shown here. Identical values can stand only once.
Tested on: Human lung cancer cells Spc-A1
Assay: MTT method, anti-proliferation on lung cancer cell line SPC-A1
Assay type: cell-based
Conditions: for Inhibition rate (%) / OD value: 5Fu 10^−4 mol/L; for OD value: A at 490 nm, x ± s, n = 5
Procedure: Human lung cancer cells Spc-A1 (hereinafter referred to as SPC), is purchased from Wuhan Cell Collection Center (cell bank of China Center for Type CultureCollection).
The tumor cells are placed in the RPMI-1640 complete medium including 10% fetal calf serum and are cultured at 37° C. under 5% CO2 incubator. When the cell growth reaches the logarithmic phase (approximately 80% integration), cells are subcultured. The experiments are divided into negative control group (RPMI-1640), positive drug group (5Fu, 10^−4 mol·L^−1) and reagent group of Smilaxchinoside F at different concentrations, which are prepared by Guilin Sanjin Pharmaceutical Co., Ltd, in accordance with example 1 of the present invention.
5×10^7·L^−1 cells at logarithmic phase are seeded in 96-well plates, each well 180 μL. After culturing for 24 h, medicine is added, each well 20 μL, five parallel wells for each group. On 4 hours before the end of culture, 20 μL of 5 g·L^−1 MTT solution is added to the each well. After the end of the culture (48 h and 72 h), the supernatant is discarded. 150 μL of DMSO is added to each wells; the optical density (A value) of each well is detected by a microplate reader at 490 nm; the tumor suppression percentage is calculated.

SMILES: O=c1[nH]cc(F)c(=O)[nH]1 [5Fu]
- Effect on SPA (lung cancer) cell proliferation in vitro, in words: significant anti-tumor effect
- Inhibition rate (%) (48 h): 39.4% and 39.37%
- OD value (48 h): 0.372 ± 0.031
- Inhibition rate (%) (72 h): 59.6% and 59.61%
- OD value (72 h): 0.295 ± 0.026
